Values quoted from earlier work, collected in PMC10783014, “Structure-based virtual screening and in vitro validation of inhibitors of cyclic dinucleotide phosphodiesterases ENPP1 and CdnP” (Microbiology Spectrum, 2023).

System: CdnP
Settings: cited from earlier work

SMILES: COc1ccc([C@]2(C#N)CC[C@@H](C(=O)O)CC2)cc1OC1CCCC1 [cilomilast]
- CdnP inhibition: demonstrated CdnP inhibition

SMILES: O=C1CCc2cc(OCCCCc3nnnn3C3CCCCC3)ccc2N1 [cilostazol]
- CdnP inhibition: demonstrated CdnP inhibition

SMILES: CCCc1nn(C)c2c(=O)[nH]c(-c3cc(S(=O)(=O)N4CCN(C)CC4)ccc3OCC)nc12 [sildenafil]
- CdnP inhibition: demonstrated CdnP inhibition

SMILES: CN1CC(=O)N2[C@H](c3ccc4c(c3)OCO4)c3[nH]c4ccccc4c3C[C@@H]2C1=O [tadalafil]
- CdnP inhibition: demonstrated CdnP inhibition
